{"source": "patent US4731109A", "about": "“Herbicidal 2-haloacetanilides” (Monsanto Company, priority 1982, dated 1988)", "assay_type_in_all_cases": "in vivo", "key": {"Barnyardgrass": {"system": "Barnyardgrass", "assay": "Resistance to leaching and resulting herbicidal efficacy", "conditions": "for inhibition at 140 g/ha / inhibition at 560 g/ha / inhibition at 2360 g/ha: Echinochloa crus-galli, read-out: Percent Inhibition", "description": "Laboratory tests were conducted to determine the resistance of herbicides according to this invention to leaching into the soil and resulting herbicidal efficacy. […] The pots containing the treated soil were subjected to leaching by placing on a turntable which rotated under two nozzle tips of a water container calibrated to deliver one inch (2.5 cm) of water per hour simulating rainfall. Leaching rates were adjusted by varying the amount of time on the turntable. Water was delivered to the soil in the pots and allowed to percolate through the filter paper and drainage holes. The pots were then allowed to sit for three days at ambient room temperature. The treated soil in the pots was then removed, crumbled and placed as a surface layer on top of other pots containing the above soils seeded with barnyardgrass seeds. The pots were then placed on greenhouse benches, sub-irrigated and allowed to grow for 2-3 weeks. Visual ratings of percent growth inhibition compared to control (untreated) pots and fresh weights for barnyardgrass were recorded; the data from the control represents six replications and that for the test compounds three replications; test data are shown in Table XVIII."}, "common ragweed": {"system": "common ragweed", "assay": "Greenhouse pre-emergence GR15/GR85 selectivity test", "conditions": "Table XV", "procedure,_shortened": "(§1)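 Pre-emergence soil-incorporation test: seeded pans were covered with topsoil mixed with active ingredient (in solvent or as wettable powder), overhead-irrigated (0.64 cm) or not, then subirrigated. Plants were scored about 2-3 weeks after treatment. GR15/GR85 rates are in kg/ha, and selectivity factor is crop GR15 divided by weed GR85.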"}, "prickly sida": {"system": "prickly sida", "assay": "Greenhouse pre-emergence GR15/GR85 selectivity test", "conditions": "Table XV", "procedure,_shortened": "as §1"}, "redroot pigweed": {"system": "redroot pigweed", "assay": "Greenhouse pre-emergence GR15/GR85 selectivity test", "conditions": "Table XV", "procedure,_shortened": "as §1"}, "common purslane": {"system": "common purslane", "assay": "Greenhouse pre-emergence GR15/GR85 selectivity test", "conditions": "Table XV", "procedure,_shortened": "as §1"}, "[1]": {"conditions": "Ray silt loam, 0.14 Kg/Ha, rain 0 cm"}, "[2]": {"conditions": "Ray silt loam, 0.14 Kg/Ha, rain 1.27 cm"}, "[3]": {"conditions": "Ray silt loam, 0.14 Kg/Ha, rain 5.08 cm"}, "[4]": {"conditions": "Ray silt loam, 0.56 Kg/Ha, rain 0 cm"}, "[5]": {"conditions": "Ray silt loam, 0.56 Kg/Ha, rain 1.27 cm"}, "[6]": {"conditions": "Ray silt loam, 0.56 Kg/Ha, rain 5.08 cm"}, "[7]": {"conditions": "Ray silt loam, 0.56 Kg/Ha, rain 10.16 cm"}, "[8]": {"conditions": "Ray silt loam, 2.36 Kg/Ha, rain 0 cm"}, "[9]": {"conditions": "Ray silt loam, 2.36 Kg/Ha, rain 1.27 cm"}, "[10]": {"conditions": "Ray silt loam, 2.36 Kg/Ha, rain 5.08 cm"}, "[11]": {"conditions": "Ray silt loam, 2.36 Kg/Ha, rain 10.16 cm"}, "[12]": {"conditions": "Ray silt loam, 0.14 Kg/Ha, rain 10.16 cm"}}, "note": "Like-named read-outs stand apart in the source and are kept apart here.", "data": [{"compound": "CCCOCN(C(=O)CCl)c1c(C)cccc1C(F)(F)F", "note": "[Example 3, N--(n-propoxymethyl)-2'-trifluoromethyl-6'-methyl-2-chloroacetanilide]", "values": [{"measurement": "inhibition at 140 g/ha", "setting": "Barnyardgrass; Drummer silt clay, 0.14 Kg/Ha, rain 0 cm", "value": 81, "unit": "%"}, {"measurement": "inhibition at 140 g/ha", "setting": "Barnyardgrass; Drummer silt clay, 0.14 Kg/Ha, rain 1.27 cm", "value": 99, "unit": "%"}, {"measurement": "inhibition at 140 g/ha", "setting": "Barnyardgrass; Drummer silt clay, 0.14 Kg/Ha, rain 5.08 cm", "value": 94, "unit": "%"}, {"measurement": "inhibition at 140 g/ha", "setting": "Barnyardgrass; Drummer silt clay, 0.14 Kg/Ha, rain 10.16 cm", "value": 54, "unit": "%"}, {"measurement": "inhibition at 560 g/ha", "setting": "Barnyardgrass; Drummer silt clay, 0.56 Kg/Ha, rain 0 cm", "value": 100, "unit": "%"}, {"measurement": "inhibition at 560 g/ha", "setting": "Barnyardgrass; Drummer silt clay, 0.56 Kg/Ha, rain 1.27 cm", "value": 100, "unit": "%"}, {"measurement": "inhibition at 560 g/ha", "setting": "Barnyardgrass; Drummer silt clay, 0.56 Kg/Ha, rain 5.08 cm", "value": 100, "unit": "%"}, {"measurement": "inhibition at 560 g/ha", "setting": "Barnyardgrass; Drummer silt clay, 0.56 Kg/Ha, rain 10.16 cm", "value": 100, "unit": "%"}, {"measurement": "inhibition at 2360 g/ha", "setting": "Barnyardgrass; Drummer silt clay, 2.36 Kg/Ha, rain 0 cm", "value": 100, "unit": "%"}, {"measurement": "inhibition at 2360 g/ha", "setting": "Barnyardgrass; Drummer silt clay, 2.36 Kg/Ha, rain 1.27 cm", "value": 100, "unit": "%"}, {"measurement": "inhibition at 2360 g/ha", "setting": "Barnyardgrass; Drummer silt clay, 2.36 Kg/Ha, rain 5.08 cm", "value": 100, "unit": "%"}, {"measurement": "inhibition at 2360 g/ha", "setting": "Barnyardgrass; Drummer silt clay, 2.36 Kg/Ha, rain 10.16 cm", "value": 100, "unit": "%"}, {"measurement": "inhibition at 140 g/ha", "setting": "Barnyardgrass; [1]", "value": 99, "unit": "%"}, {"measurement": "inhibition at 140 g/ha", "setting": "Barnyardgrass; [2]", "value": 95, "unit": "%"}, {"measurement": "inhibition at 140 g/ha", "setting": "Barnyardgrass; [3]", "value": 63, "unit": "%"}, {"measurement": "inhibition at 560 g/ha", "setting": "Barnyardgrass; [4]", "value": 100, "unit": "%"}, {"measurement": "inhibition at 560 g/ha", "setting": "Barnyardgrass; [5]", "value": 100, "unit": "%"}, {"measurement": "inhibition at 560 g/ha", "setting": "Barnyardgrass; [6]", "value": 94, "unit": "%"}, {"measurement": "inhibition at 560 g/ha", "setting": "Barnyardgrass; [7]", "value": 52, "unit": "%"}, {"measurement": "inhibition at 2360 g/ha", "setting": "Barnyardgrass; [8]", "value": 100, "unit": "%"}, {"measurement": "inhibition at 2360 g/ha", "setting": "Barnyardgrass; [9]", "value": 100, "unit": "%"}, {"measurement": "inhibition at 2360 g/ha", "setting": "Barnyardgrass; [10]", "value": 100, "unit": "%"}, {"measurement": "inhibition at 2360 g/ha", "setting": "Barnyardgrass; [11]", "value": 95, "unit": "%"}, {"measurement": "inhibition at 140 g/ha", "setting": "Barnyardgrass; [12]", "value": 14, "unit": "%"}, {"measurement": "Fresh Weight", "setting": "Barnyardgrass; [1]", "value": 0.05, "unit": "Grams"}, {"measurement": "Fresh Weight", "setting": "Barnyardgrass; [2]", "value": 0.22, "unit": "Grams"}, {"measurement": "Fresh Weight", "setting": "Barnyardgrass; [3]", "value": 1.53, "unit": "Grams"}, {"measurement": "Fresh Weight", "setting": "Barnyardgrass; [12]", "value": 3.51, "unit": "Grams"}, {"measurement": "Fresh Weight", "setting": "Barnyardgrass; [4]", "value": 0, "unit": "Grams"}, {"measurement": "Fresh Weight", "setting": "Barnyardgrass; [5]", "value": 0, "unit": "Grams"}, {"measurement": "Fresh Weight", "setting": "Barnyardgrass; [6]", "value": 0.24, "unit": "Grams"}, {"measurement": "Fresh Weight", "setting": "Barnyardgrass; [7]", "value": 1.97, "unit": "Grams"}, {"measurement": "Fresh Weight", "setting": "Barnyardgrass; [8]", "value": 0, "unit": "Grams"}, {"measurement": "Fresh Weight", "setting": "Barnyardgrass; [9]", "value": 0, "unit": "Grams"}, {"measurement": "Fresh Weight", "setting": "Barnyardgrass; [10]", "value": 0, "unit": "Grams"}, {"measurement": "Fresh Weight", "setting": "Barnyardgrass; [11]", "value": 0.22, "unit": "Grams"}, {"measurement": "GR85 Rate", "setting": "common ragweed", "value": 0.49, "unit": "Kg/Ha"}, {"measurement": "selectivity factor (GR15/GR85)", "setting": "common ragweed; in rape", "value": 1.8}, {"measurement": "GR85 Rate", "setting": "prickly sida", "value": "> 1.12", "unit": "Kg/Ha"}, {"measurement": "selectivity factor (GR15/GR85)", "setting": "prickly sida; in rape", "value": "NS (non-selective)"}, {"measurement": "GR85 Rate", "setting": "redroot pigweed", "value": 0.39, "unit": "Kg/Ha"}, {"measurement": "selectivity factor (GR15/GR85)", "setting": "redroot pigweed; in rape", "value": 2.3}, {"measurement": "GR85 Rate", "setting": "common purslane", "value": 0.70, "unit": "Kg/Ha"}, {"measurement": "selectivity factor (GR15/GR85)", "setting": "common purslane; in rape", "value": 1.3}]}]}
